Key:
[1] = test system: Human immunodeficiency virus 2; assay: Antiviral activity against HIV-2 ROD infected in MT4 cells assessed as protection against virus induced cytotoxicity and measured after 5 days by MTT spectrophotometric assay; format: functional, organism-based; details: Human immunodeficiency virus 2, ROD, MT4, 120 h
[2] = test system: Human immunodeficiency virus 1; assay: Antiviral activity against HIV-1 IIIB infected in MT4 cells assessed as protection against virus induced cytotoxicity incubated for 5 days by MTT assay; format: functional, organism-based; details: Human immunodeficiency virus 1, IIIB, MT4, 120 h
[3] = Selectivity index, ratio of CC50 for human MT4 cells to EC50 for HIV-1 IIIB infected in human MT4 cells; format: toxicity, cell-based; details: read-out: Ratio CC50/EC50
[4] = Cytotoxicity against human MT4 cells assessed as reduction in cell viability after 5 days by MTT assay; format: toxicity, cell-based; details: time 5 day
[5] = Selectivity index, ratio of CC50 for human MT4 cells to EC50 for HIV-2 ROD infected in human MT4 cells; format: toxicity, cell-based; details: read-out: Ratio CC50/EC50

Compound | EC50 [1] [µM] | EC50 [2] [µM] | selectivity ratio [3] | CC50 at 120 h [4] [µM] | selectivity ratio [5]
COc1ccc(N(C)C(=O)[C@H](Cc2ccccc2)NC(=O)CN2CCN(C(=O)c3ccc(N)cc3)CC2=O)cc1 | 28 | 21 | > 11 | > 230 | > 8.2
COc1ccc(N(C)C(=O)[C@H](Cc2cc(F)cc(F)c2)NC(=O)CN2CCN(C(=O)c3ccc(C)cc3)CC2=O)cc1 | 35 | 32 | 2.3 | 74 | 2.1
COC(=O)c1ccc(C(=O)N2CCN(CC(=O)N[C@@H](Cc3ccccc3)C(=O)N(C)c3ccc(OC)cc3)C(=O)C2)cc1 | 24 | > 190 | < 1 | 200 | 8.3
COc1ccc(N(C)C(=O)[C@H](Cc2ccccc2)NC(=O)CN2CCN(C(=O)c3ccc([N+](=O)[O-])cc3)CC2=O)cc1 | > 16 | > 16 | < 1 | 16 | < 1
COc1ccc(N(C)C(=O)[C@H](Cc2ccccc2)NC(=O)CN2CCN(C(=O)c3ccccc3)CC2=O)cc1 | 3.6 | 28 | > 8.6 | > 240 | > 67
COc1ccc(C(=O)N2CCN(CC(=O)N[C@@H](Cc3cc(F)cc(F)c3)C(=O)N(C)c3ccc(OC)cc3)C(=O)C2)cc1 | 31 | 24 | 4 | 96 | 3.1
COc1ccc(N(C)C(=O)[C@H](Cc2ccccc2)NC(=O)CN2CCN(C(=O)c3ccccc3N)CC2=O)cc1 | 5.4 | 23 | 7 | 160 | 30
COc1ccc(N(C)C(=O)[C@H](Cc2cc(F)cc(F)c2)NC(=O)CN2CCN(C(=O)c3ccc(Br)cc3)CC2=O)cc1 | > 19 | > 19 | < 1 | 19 | < 1
COc1ccc(N(C)C(=O)[C@H](Cc2cc(F)cc(F)c2)NC(=O)CN2CCN(C(=O)c3ccccc3N)CC2=O)cc1 | 8.6 | 18 | 8.9 | 160 | 19
COc1ccc(N(C)C(=O)[C@H](Cc2cc(F)cc(F)c2)NC(=O)CN2CCN(C(=O)c3ccc(F)cc3)CC2=O)cc1 | 21 | 20 | 3.8 | 77 | 3.7
COc1ccc(N(C)C(=O)[C@H](Cc2cc(F)cc(F)c2)NC(=O)CN2CCN(C(=O)c3cccc([N+](=O)[O-])c3)CC2=O)cc1 | > 47 | 34 | 1.4 | 47 | < 1
COc1ccc(N(C)C(=O)[C@H](Cc2cc(F)cc(F)c2)NC(=O)CN2CCN(C(=O)c3cccc(N)c3)CC2=O)cc1 | 16 | 23 | > 10 | > 220 | > 14
COc1ccc(N(C)C(=O)[C@H](Cc2ccccc2)NC(=O)CN2CCN(C(=O)c3ccc(F)cc3)CC2=O)cc1 | 11 | > 77 | < 1 | 77 | 7
COc1ccc(C(=O)N2CCN(CC(=O)N[C@@H](Cc3ccccc3)C(=O)N(C)c3ccc(OC)cc3)C(=O)C2)cc1 | 21 | 26 | 4.2 | 110 | 5.2
COc1ccc(N(C)C(=O)[C@H](Cc2ccccc2)NC(=O)CN2CCN(C(=O)c3ccc(C(F)(F)F)cc3)CC2=O)cc1 | ≥ 41 | ≥ 37 | – | 42 | –
COc1ccc(N(C)C(=O)[C@H](Cc2ccccc2)NC(=O)CN2CCN(C(=O)c3ccccc3C(F)(F)F)CC2=O)cc1 | 2.9 | 21 | 6.2 | 130 | 45
COc1ccc(N(C)C(=O)[C@H](Cc2ccccc2)NC(=O)CN2CCN(C(=O)c3cccc(C(F)(F)F)c3)CC2=O)cc1 | > 6.7 | > 6.7 | < 1 | 6.7 | < 1
COc1ccc(N(C)C(=O)[C@H](Cc2cc(F)cc(F)c2)NC(=O)CN2CCN(C(=O)c3ccc([N+](=O)[O-])cc3)CC2=O)cc1 | > 18 | > 18 | < 1 | 18 | < 1
COC(=O)c1ccc(C(=O)N2CCN(CC(=O)N[C@@H](Cc3cc(F)cc(F)c3)C(=O)N(C)c3ccc(OC)cc3)C(=O)C2)cc1 | 26 | 18 | 6.7 | 120 | 4.6
COc1ccc(N(C)C(=O)[C@H](Cc2ccccc2)NC(=O)CN2CCN(C(=O)c3ccc(Br)cc3)CC2=O)cc1 | > 11 | > 11 | < 1 | 11 | < 1
COc1ccc(N(C)C(=O)[C@H](Cc2ccccc2)NC(=O)CN2CCN(C(=O)c3cccc(N)c3)CC2=O)cc1 | 27 | ≥ 200 | ≥ 1 | > 230 | > 8.5
COc1ccc(N(C)C(=O)[C@H](Cc2cc(F)cc(F)c2)NC(=O)CN2CCN(C(=O)c3cccc(F)c3)CC2=O)cc1 | 13 | 25 | 4 | 99 | 7.6
COc1ccc(N(C)C(=O)[C@H](Cc2cc(F)cc(F)c2)NC(=O)CN2CCN(C(=O)c3ccccc3F)CC2=O)cc1 | 5.3 | 22 | 6.4 | 140 | 26
COc1ccc(N(C)C(=O)[C@H](Cc2cc(F)cc(F)c2)NC(=O)CN2CCN(C(=O)c3ccc(C(F)(F)F)cc3)CC2=O)cc1 | > 18 | > 18 | < 1 | 18 | < 1
COc1ccc(N(C)C(=O)[C@H](Cc2cc(F)cc(F)c2)NC(=O)CN2CCN(C(=O)c3cccc(C(F)(F)F)c3)CC2=O)cc1 | > 3.7 | > 3.7 | < 1 | 3.7 | < 1
COc1ccc(N(C)C(=O)[C@H](Cc2ccccc2)NC(=O)CN2CCN(C(=O)c3ccc(C)cc3)CC2=O)cc1 | 9.2 | 33 | 1.9 | 64 | 7
COc1ccc(N(C)C(=O)[C@H](Cc2ccccc2)NC(=O)CN2CCN(C(=O)c3ccccc3F)CC2=O)cc1 | 7.8 | 24 | 5.8 | 140 | 18
COc1ccc(N(C)C(=O)[C@H](Cc2ccccc2)NC(=O)CN2CCN(C(=O)c3cccc([N+](=O)[O-])c3)CC2=O)cc1 | > 24 | > 24 | < 1 | 24 | < 1
COc1ccc(N(C)C(=O)[C@H](Cc2cc(F)cc(F)c2)NC(=O)CN2CCN(C(=O)c3ccccc3)CC2=O)cc1 | 12 | 25 | 4.4 | 110 | –
